Assay results from patent US20260294870A1, “INDOLE LACTATE FOR THE TREATMENT OF MULTIPLE SCLEROSIS” (The Johns Hopkins University, priority 2023, published 2026).
“Also recorded” adds a separate entry of the source.

Experiments:
[1] = tested on: murine oligodendrocyte precursor cells; experiment: Differentiation of murine oligodendrocyte precursor cells (immunocytochemistry, qPCR); assay type: cell-based, murine (neonatal mice); conditions: for OPC differentiation after PDGF-a withdrawal: PDGF-a withdrawal plus ILA or T3; for OPC differentiation (CC1 expression): compared to control conditions or OPCs treated with PDGF-a
From the text: We tested the effect of several doses of indole lactate on differentiation of oligodendrocyte precursor cells isolated using immune-panning from neonatal mice.

[2] = tested on: Murine MOG specific T cells; experiment: T cell proliferation, activation and Th17 polarization by flow cytometry; assay type: cell-based, murine (2D2 TCR transgenic C57/BL6 mice)
Method: Murine MOG specific T cells were isolated and stimulated with […] Th17 polarizing conditions for 72 hours followed by flow-cytometry to analyze viability, proliferation and Th17 polarization in presence of vehicle or varying doses of ILA;
T cells were isolated from spleen and lymph nodes of 2D2 TCR transgenic C57/BL6 mice using negative selection (STEMCELL CD4 T cell isolation kit). T cells were then cultured in c-RPMI with MOG35-55 peptide in the presence of irradiated antigen presenting cells with or without additional cytokines to polarize the cells to a Th17 phenotype for 72 hours and then underwent flow-cytometry to analyze proliferation and Th17 polarization.

human ES derived OPCs = experiment: OPC differentiation of human ES derived OPCs with AhR antagonist; assay type: cell-based; conditions: small molecule AhR antagonist
From the text: We also tested the effects of blocking AhR signaling using a small molecules AhR antagonist.

[3] = Circulating ILA and IAA levels with oral ILA supplementation; assay type: in vivo, mice
From the text: FIG. 12A, FIG. 12B, FIG. 12C, FIG. 12D, FIG. 12E, FIG. 12F, FIG. 12G, FIG. 12H, and FIG. 12I show: FIG. 12A. Schematic of product of ILA and IAA and the change in levels with ILA supplementation in naïve mice. FIG. 12B. Clinical scores and plasma ILA and IAA levels at end of experiment in mice on vehicle or oral ILA supplementation. FIG. 12C. Change in ILA/IAA ratio. FIG. 12D. Correlation of ILA/IAA ratio and cumulative EAE score. FIG. 12E. Gut microbiota composition in vehicle and ILA groups at various time points (n=10 each group). FIG. 12F. Change in alpha diversity over the course of EAE.

[4] = tested on: OPCs from wild type (WT) mice; experiment: OPC differentiation in OPCs from WT mice; assay type: cell-based
[5] = tested on: experimental autoimmune encephalomyelitis; experiment: Experimental autoimmune encephalomyelitis, indole lactate IP; assay type: in vivo, Mice (C57/BL6); conditions: for Disease severity (EAE): p<0.0001
From the text: (§1) Mice (C57/BL6, 8-9 week old) were immunized with MOG35-55 peptide and CFA and received IP injection of PTX on day 0 and 2. […] Mice were weighed and scored daily using the following scale (0-normal, 1-limp tail, 2-hind-limb weakness, 3-hind-limb paralysis, 4-fore-limb weakness, 5-death).

[6] = tested on: mouse model of demyelination (cuprizone); experiment: Cuprizone model of demyelination, oral ILA in drinking water; assay type: in vivo, mice
Method: In subsequent experiments, we fed mice with 0.2% cuprizone for 5 weeks and then randomized them to ILA 2 mM in drinking water or acidified water as a control for 2 weeks. […] These observations provide evidence that oral administration of ILA promotes remyelination in vivo in a mouse model of demyelination.

macrophages = experiment: Nitric oxide production in macrophages; assay type: cell-based
[7] = tested on: experimental autoimmune encephalomyelitis; experiment: Experimental autoimmune encephalomyelitis, oral indole lactate; assay type: in vivo, Mice (C57/BL6); conditions: for severity of EAE: oral, ILA 2 mM in drinking water from day 7 post-immunization, 3 weeks, p<0.0001 vs vehicle
Method: as §1
We subsequently performed additional experiments in which we induced EAE using the same paradigm, however at day 7 post-immunization mice were randomized to receive ILA orally in drinking water (ILA 2 mM) or acidified water (adjusted to a similar pH) for the next 3 weeks. At four weeks post-immunization mice were euthanized and tissues were collected and processed for immunohistochemistry. We stained sections of the spinal cord to assess for extent of demyelination and for infiltration of immune cells.
Additionally, we repeated experiments and euthanized mice at the peak of disease to obtain spinal cord tissues for flow cytometric analyses.

gut microbiota = experiment: Gut microbiota in EAE mice by 16s rRNA sequencing; assay type: in vivo
From the text: We examined the change in the gut microbiota using 16s rRNA sequencing at baseline, peak of disease and chronic disease in mice receiving ILA or vehicle orally.

[8] = tested on: Arylhydrocarbon Receptor (AhR); experiment: CYP1B1 (AhR responsive gene) expression in human ES derived OPCs, quantitative PCR; assay type: cell-based
From the text: We noted presence of AhR in Olig2+ and PDGFRα+ cells confirming that AhR is present in oligodendrocyte precursor cells. We also obtained RNA from human ES derived OPCs that had been treated with either vehicle or two different doses of ILA for 5 days.

[9] = tested on: human embryonic stem cell derived oligodendrocyte precursor cells; experiment: Differentiation of human embryonic stem cell derived oligodendrocyte precursor cells (luciferase under MBP promoter); assay type: cell-based
From the text: We also tested the effect of indole lactate on differentiation of human embryonic stem cell derived oligodendrocyte precursor cells. In this system, the cells produce luciferase under control of the promoter for MBP. Thus, OPC differentiation can be measured using the quantity of luciferase produced by cells.

[10] = tested on: Cuprizone-induced model of demyelination; experiment: Cuprizone-induced model of demyelination, ILA 20 or 40 mg/kg; assay type: in vivo, Mice; conditions: 0.2% Cuprizone 4 weeks then regular chow one week
Method: We tested the ability of indole lactate to promote remyelination in the Cuprizone-induced model of demyelination. Mice were fed with 0.2% Cuprizone for 4 weeks to induce demyelination and then switched to regular chow for one week. At three weeks of Cuprizone feeding mice were randomized to treatment with ILA 20 mg/kg, ILA 40 mg/kg or vehicle for two weeks.

OPCs from Ahr KO mice = experiment: OPC differentiation in OPCs from constitutive Ahr-KO mice; assay type: cell-based; conditions: listed as ILA
From the text: We further evaluated the mechanism of ILA using OPCs from mice that lack the Ahr gene—constitutive Ahr-KO mice.

[11] = ILA 2 mM in drinking water, 2 weeks, vs vehicle
[12] = spinal cord, four weeks post-immunization, oral ILA 2 mM in drinking water
[13] = spinal cord, peak of disease, oral ILA

SMILES: N[C@@H](Cc1cc(I)c(Oc2ccc(O)c(I)c2)c(I)c1)C(=O)O [T3, reference compound]
- OPC differentiation after PDGF-a withdrawal [1]: further potentiated

SMILES: O=C(O)C(O)Cc1c[nH]c2ccccc12 (stereo not drawn) [indole lactate, indole-3-lactic acid]
- T cell activation ([2]; 72 hours): reduces T cell proliferation, activation
- Th17 polarization ([2]; MOG35-55 peptide, Th17 polarizing cytokines, 72 hours, dose-dependent): reduced T cell proliferation and Th17 polarization in a dose-dependent manner
- T cell proliferation ([2]; MOG35-55 peptide, irradiated antigen presenting cells, 72 hours, dose-dependent): reduces T cell proliferation; also recorded: reduced T cell proliferation and Th17 polarization in a dose-dependent manner
- pro-inflammatory cytokine production from T cells ([2]; in culture): reduces T cell proliferation, activation and pro-inflammatory cytokine production; also recorded: reduced pro-inflammatory cytokine production
- effect of AhR antagonist on pro-differentiating effect of ILA (human ES derived OPCs; high doses of ILA): this effect was lost at high doses
- pro-differentiating effect of ILA in presence of AhR antagonist (human ES derived OPCs; low doses of ILA, listed as ILA): an AhR inhibitor reverses the effects of ILA on OPC differentiation; also recorded: the AhR antagonist blocked the pro-differentiating effects
- ILA/IAA ratio ([3]; EAE mice): increase in ILA/IAA ratio
- circulating ILA levels ([3]; naïve mice): increased circulating ILA levels
- OPC differentiation [4]: promoted OPC differentiation
- proportion of Olig2 and CC1 double-positive cells ([1]; ILA 150 μM vs vehicle): significantly higher proportion
- proportion of Olig2 and CC1 double-positive cells ([1]; ILA 300 μM vs vehicle): significantly higher proportion
- expression of MBP (qPCR) ([1]; ILA 300 μM with low dose T3 compared to T3 alone): significantly higher expression
- OPC differentiation after PDGF-a withdrawal [1]: further potentiated
- OPC differentiation (CC1 expression) [1]: dose-dependent increase in OPC differentiation
- OPC differentiation (CC1 expression) ([1]; listed as ILA): increased differentiation of OPCs
- disease severity, dose dependence (EAE) ([5]; 10 and 20 mg/kg IP twice daily vs vehicle): significant dose-dependent reduction in disease severity
- Disease severity (EAE) ([5]; high-dose (20 mg/kg) IP twice daily vs vehicle): reduced significantly
- Disease severity (EAE) ([5]; low-dose (10 mg/kg) IP twice daily vs vehicle): reduced significantly
- remyelination in the corpus callosum (black gold and fluoromyelin staining) ([6]; ILA 2 mM in drinking water, 2 weeks after 0.2% cuprizone 5 weeks, vs acidified water): significantly increased remyelination
- g ratio (scanning EM, corpus callosum) [6, 11]: significantly lower g ratio
- proportion of myelinated axons (scanning EM, corpus callosum) [6, 11]: higher proportion of myelinated axons
- proportion of remyelinated axons (electron micrographs, corpus callosum) ([6]; oral ILA vs vehicle): higher proportion of remyelinated axons
- production of nitric oxide in macrophages (macrophages): reduced pro-inflammatory cytokine production from T cells in culture and the production of nitric oxide in macrophages
- immune cell infiltration on IHC and flow cytometry analysis ([7]; oral indole lactate vs vehicle): reduction in immune cell infiltration
- severity of EAE [7]: reduced significantly
- severity of EAE ([7]; listed as ILA): reduced severity of EAE
- extent of demyelination on IHC [7, 12]: reduced extent of demyelination
- immune cell infiltration on IHC [7, 12]: reduced extent of demyelination and immune cell infiltration
- iNOS producing inflammatory macrophages (flow cytometry) [7, 13]: shift towards less iNOS producing inflammatory macrophages
- infiltration of T cells and macrophages (flow cytometry) [7, 13]: reduced infiltration of T cells and macrophages
- acetylene degradation pathway (gut microbiota functional pathway) (gut microbiota; ILA supplementation): reduced acetylene degradation pathway
- change in multiple bacteria (abundance) (gut microbiota; oral ILA vs vehicle): differential change in multiple bacteria
- overall composition of the gut microbiota (gut microbiota; oral ILA vs vehicle, baseline, peak and chronic disease): change in the overall composition of the gut microbiota
- CYP1B1 expression ([8]; high-dose ILA): CYP1B1 expression increased
- expression of CYP1B1 (AhR responsive gene) ([8]; two doses of ILA, 5 days, vs vehicle, dose-response relationship): increased expression of CYP1B1
- oligodendrocyte precursor cell differentiation based on production of luciferase (marker of MBP expression) ([9]; 100 μM): promoted oligodendrocyte precursor cell differentiation
- oligodendrocyte precursor cell differentiation based on production of luciferase (marker of MBP expression) ([9]; 300 μM): promoted oligodendrocyte precursor cell differentiation
- OPC differentiation measured by Luciferase release ([9]; ILA treatment conditions, dose-dependent): significant increase in OPC differentiation
- area of myelination in the corpus callosum (Black Gold staining) ([10]; ILA 20 mg/kg for two weeks): significant increase in area of myelination
- area of myelination in the corpus callosum (Black Gold staining) ([10]; ILA 40 mg/kg for two weeks): significant increase in area of myelination
- OPC differentiation (pro-differentiation effect of ILA) (OPCs from Ahr KO mice): loss of pro-differentiation effect; also recorded: the effect was lost
